Laboratory results reported in ChEMBL document CHEMBL1201862, “PubChem BioAssay data set” (2004).
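Cultured in 96-well plates, cells were exposed to test compound for 48 hours across five concentrations. At the GI50, growth is halved.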 Active and inactive are the calls of the source. Cut-off read from the data, not from the text of the source: active = GI50 up to about 1.1 µM and inactive = higher.

Columns and labels:
Experiment in all cases: inhibition of tumour cell growth, NCI panel, 48 h
SN12C = system: SN12C
XF498 = system: XF498
RXF 393 = system: RXF 393
NCI-H522 = system: NCI-H522
COLO 205 = system: COLO 205
HT-29 = system: HT-29
SNB-19 = system: SNB-19
UO-31 = system: UO-31
A549 = system: A549
HOP-92 = system: HOP-92
SW-620 = system: SW-620
OVCAR-8 = system: OVCAR-8
SF-268 = system: SF-268
Malme-3M = system: Malme-3M
HOP-62 = system: HOP-62
IGROV-1 = system: IGROV-1
SK-MEL-5 = system: SK-MEL-5
NCI-H460 = system: NCI-H460
HOP-18 = system: HOP-18
HCC 2998 = system: HCC 2998
OVCAR-5 = system: OVCAR-5
DMS-273 = system: DMS-273
A498 = system: A498
CCRF-CEM = system: CCRF-CEM
SNB-75 = system: SNB-75
SK-OV-3 = system: SK-OV-3
NCI-H226 = system: NCI-H226
RPMI-8226 = system: RPMI-8226
MCF7 = system: MCF7
OVCAR-4 = system: OVCAR-4
NCI/ADR-RES = system: NCI/ADR-RES
SK-MEL-28 = system: SK-MEL-28
EKVX = system: EKVX
SF-539 = system: SF-539
DLD-1 = system: DLD-1
K562 = system: K562
CAKI-1 = system: CAKI-1
MOLT-4 = system: MOLT-4
KM-20L2 = system: KM-20L2
SK-MEL-2 = system: SK-MEL-2
DMS-114 = system: DMS-114
HCT-116 = system: HCT-116
U-251 = system: U-251
OVCAR-3 = system: OVCAR-3
KM12 = system: KM12
HCT-15 = system: HCT-15
SF-295 = system: SF-295
SNB-78 = system: SNB-78
NCI-H23 = system: NCI-H23
HL-60 = system: HL-60
UACC-257 = system: UACC-257
UACC-62 = system: UACC-62
LOX IMVI = system: LOX IMVI

Measured: GI50

CCCCOc1ccc(OCCCCCCCCCC[N+](C)(C)C)cc1
active: RXF 393 796 nM | HT-29 452 nM | RPMI-8226 481 nM | KM-20L2 682 nM | HL-60 390 nM
14.9 µM: HCT-15
inactive: SN12C 3.62 µM | XF498 1.71 µM | NCI-H522 1.7 µM | COLO 205 1.24 µM | SNB-19 7.6 µM | UO-31 8.02 µM | A549 3.55 µM | HOP-92 1.33 µM | SW-620 3.66 µM | OVCAR-8 3.66 µM | SF-268 3.13 µM | Malme-3M 4.37 µM | HOP-62 3.62 µM | IGROV-1 1.37 µM | SK-MEL-5 1.91 µM | NCI-H460 2.54 µM | HOP-18 3.42 µM | HCC 2998 1.95 µM | OVCAR-5 4.65 µM | DMS-273 1.51 µM | A498 9.93 µM | CCRF-CEM 1.28 µM | SNB-75 2.17 µM | SK-OV-3 2.89 µM | NCI-H226 4.26 µM | MCF7 3.44 µM | OVCAR-4 2.86 µM | NCI/ADR-RES 58.9 µM | SK-MEL-28 5.58 µM | EKVX 15.5 µM | SF-539 3.24 µM | DLD-1 6.38 µM | K562 2.74 µM | CAKI-1 3.73 µM | MOLT-4 1.38 µM | SK-MEL-2 2.01 µM | DMS-114 2.05 µM | HCT-116 2.34 µM | U-251 1.91 µM | OVCAR-3 2.1 µM | KM12 1.48 µM | SF-295 6.17 µM | SNB-78 2.38 µM | NCI-H23 1.95 µM | UACC-257 5.08 µM | UACC-62 4.06 µM | LOX IMVI 1.53 µM
